Assay results: patent US20250296971A1, “GASTRIC INHIBITORY PEPTIDE RECEPTOR LIGANDS” (priority 2021, published 2025)
Read-outs that look alike come from different tables or passages of the source. *1 amine or outer side, *2 acyl side, *3 side chain or, on linkers, in order; H or OH if unused. Where a SMILES comes first, the peptide text is derived from it. Bridges are numbered along the chain shown (N, C = ends). [ ]: non-standard residue; d: D form. The star is where a group is joined. X5 = NC(=O)[C@H](CCCCNC(=O)CN1CCN(CC(=O)O)CCN(CC(=O)O)CCN(CC(=O)O)CC1)NC(=O)CCC(=O)NCCCOCCOCCOCCCN*; X3 = O=C(O)CN1CCN(CC(=O)O)CCN(CC(=O)NCCCOCCOCCOCCCN*)CCN(CC(=O)O)CC1; NH(1-deoxy-D-glucityl) = OC[C@@H](O)[C@@H](O)[C@H](O)[C@@H](O)CN*; Pro(trans-4-NH2) = O=C([C@@H]1C[C@@H](N[*:3])CN1[*:1])[*:2]; DOTA = O=C(O)CN1CCN(CC(=O)O)CCN(CC(=O)*)CCN(CC(=O)O)CC1; Trp(5-Cl) = N[C@@H](Cc1c[nH]c2ccc(Cl)cc12)C(=O)O; Phe(3,5-Cl2) = N[C@@H](Cc1cc(Cl)cc(Cl)c1)C(=O)O; Pyridine(2,6-diCH2) = c1cc(C[*:1])nc(C[*:2])c1; Trp(6-F) = N[C@@H](Cc1c[nH]c2cc(F)ccc12)C(=O)O; Phe(2-Cl) = N[C@@H](Cc1ccccc1Cl)C(=O)O; Pro(4R-NH2) = N[C@H]1CN[C@H](C(=O)O)C1; 1Nal = N[C@@H](Cc1cccc2ccccc12)C(=O)O; mXylylene = c1cc(C[*:1])cc(C[*:2])c1; Glutaryl = O=C(CCCC(=O)[*:2])[*:1]; PEG6 = NCCOCCOCCOCCOCCOCCOCCC(=O)O; X7 = c1cc(CSCCN[*:2])cc(C[*:1])c1; Hyp = O=C(O)[C@@H]1C[C@@H](O)CN1; X1 = O=C(CN1CCC(N[*:1])CC1)[*:2]; Suc = O=C(CCC(=O)[*:2])[*:1]; NMeC = CN[C@@H](CS)C(=O)O; X30 = NCCNCC(CNCCN)C(=O)*; Api = NC1(C(=O)O)CCNCC1; Thp = NC1(C(=O)O)CCOCC1; Dap = NC[C@H](N)C(=O)O; Aib = CC(C)(N)C(=O)O

Target: T1, GIPR (CHO-K1-hGIPR cells) (Homo sapiens, UniProt P48546)
T1 construct: host or cells: CHO-K1
T1 sequence (P48546 22-466): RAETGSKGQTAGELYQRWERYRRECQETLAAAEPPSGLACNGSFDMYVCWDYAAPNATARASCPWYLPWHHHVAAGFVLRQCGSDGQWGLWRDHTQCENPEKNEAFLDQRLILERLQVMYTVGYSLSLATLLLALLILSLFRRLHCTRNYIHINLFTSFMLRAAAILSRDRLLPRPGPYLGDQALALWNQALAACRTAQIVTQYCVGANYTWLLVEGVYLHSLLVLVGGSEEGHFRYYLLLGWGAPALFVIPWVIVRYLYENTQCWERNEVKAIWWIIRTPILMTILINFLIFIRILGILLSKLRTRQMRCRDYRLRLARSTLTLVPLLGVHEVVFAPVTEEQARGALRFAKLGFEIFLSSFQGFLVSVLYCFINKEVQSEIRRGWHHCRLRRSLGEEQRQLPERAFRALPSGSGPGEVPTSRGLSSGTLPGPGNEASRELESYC
Assay: FACS binding assay
Conditions: read-out: pIC50 Category (converted)
Summary of the method: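 Peptide binding read by flow cytometry as APC-channel median fluorescence, fitted with a four-parameter logistic to yield EC50 or IC50. Cells were hGIPR-transfected CHO-K1 in PBS with 1% FCS, detected with 1 μg/mL APC-streptavidin, 30 min on ice.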

[1] = competition with 20 nM GIP-057, 4° C. for 1 hour
[2] = competition with 20 nM GIP-057, 4° C., 1 hour

Compound	IC50 [1] [nM]	IC50 [2] [nM]
CC[C@H](C)[C@@H]1NC(=O)[C@H](CC(C)C)NC(=O)[C@H](C)NC(=O)[C@@H](NC(=O)[C@H](CC(C)C)NC(=O)[C@H](CCC(=O)O)NC(=O)[C@@H]2CCCN2C(=O)[C@H](Cc2c[nH]c3ccccc23)NC(=O)[C@@H](Cc2c[nH]c3ccccc23)NC(=O)[C@H](CC(=O)O)NC(=O)[C@H](Cc2ccc(O)cc2)NC(=O)[C@@H](N)CCSC)CSCc2cccc(c2)CSC[C@@H](C(N)=O)NC1=O [GIP-308, H-Met-Tyr-Asp-trp-Trp-Pro-Glu-Leu-[Cys(3MeBn)-Ala-Leu-Ile-Cys]-NH2] (H-MYD[dW]WPELCALIC-NH2; linker 9-13 via mXylylene)	100 to 794	
CC[C@H](C)[C@@H]1NC(=O)[C@H](CC(C)C)NC(=O)C(C)(C)NC(=O)[C@@H](NC(=O)[C@@H](CC(C)C)NC(=O)[C@H](CCC(=O)O)NC(=O)[C@@H]2CCCN2C(=O)[C@H](Cc2c[nH]c3ccccc23)NC(=O)[C@H](Cc2c[nH]c3cc(F)ccc23)NC(=O)[C@H](CC(=O)O)NC(=O)CCC(=O)NCCCOCCOCCOCCCNC(=O)CN2CCN(CC(=O)O)CCN(CC(=O)O)CCN(CC(=O)O)CC2)CSCc2cccc(c2)CSCCNC1=O [GIP-283, DOTA-Ttds-Asp-6Fw-Trp-Pro-Glu-leu-[Cys(3MeBn)-Aib-Leu-Ile-AET]] ({X3-Suc}-D[Trp(6-F)]WPE[dL]C[Aib]LI; linker 7-C via X7)	100 to 794	
CC[C@H](C)[C@@H]1NC(=O)[C@H](CC(C)C)NC(=O)C2(CCOCC2)NC(=O)[C@@H](NC(=O)[C@@H](CC(C)C)NC(=O)[C@H](CCC(=O)O)NC(=O)[C@@H]2C[C@@H](N)CN2C(=O)[C@H](Cc2c[nH]c3ccc(Cl)cc23)NC(=O)[C@H](Cc2c[nH]c3ccccc23)NC(=O)[C@H](CC(=O)O)NC(=O)CCOCCOCCOCCOCCOCCOCCNC(=O)[C@@H](CCC(=O)NC[C@H](O)[C@@H](O)[C@H](O)[C@H](O)CO)NC(=O)CN2CCN(CC(=O)O)CCN(CC(=O)O)CCN(CC(=O)O)CC2)CSCc2cccc(n2)CSC[C@@H](C(=O)NC2CCN(CC(=O)N[C@H](CCC(=O)NC[C@H](O)[C@@H](O)[C@H](O)[C@H](O)CO)C(N)=O)CC2)NC1=O [GIP-019, DOTA-glu(AGLU)-PEG6-Asp-Trp-5Clw-Tap-Glu-leu-[Cys(2Lut)-Thp-Leu-Ile-Cys]-APAc-glu(AGLU)-NH2] ({DOTA}-[dE](NH(1-deoxy-D-glucityl))[PEG6]DW[Trp(5-Cl)][Pro(4R-NH2)]E[dL]C[Thp]LIC[X1][dE](NH(1-deoxy-D-glucityl))-NH2; linker 9-13 via Pyridine(2,6-diCH2))		< 10
CC[C@H](C)[C@@H]1NC(=O)[C@H](CC(C)C)NC(=O)C(C)(C)NC(=O)[C@@H](NC(=O)[C@H](CNC(C)=O)NC(=O)[C@H](CCC(=O)O)NC(=O)[C@@H]2CCCN2C(=O)[C@H](Cc2cccc3ccccc23)NC(=O)[C@H](Cc2c[nH]c3ccccc23)NC(=O)[C@H](CC(=O)O)NC(C)=O)CSCc2cccc(c2)CSC[C@@H](C(N)=O)NC1=O [GIP-348, Ac-Asp-Trp-1Ni-Pro-Glu-Dap(Ac)-[Cys(3MeBn)-Aib-Leu-Ile-Cys]-NH2] (Ac-DW[1Nal]PE[Dap](Ac)C[Aib]LIC-NH2; linker 7-11 via mXylylene)	> 1000	
CC[C@H](C)[C@@H]1NC(=O)[C@H](CC(C)C)NC(=O)C(C)(C)NC(=O)[C@@H](N(C)C(=O)[C@H](CC(C)C)NC(=O)[C@H](CCC(=O)O)NC(=O)[C@@H]2CCCN2C(=O)[C@H](Cc2c[nH]c3ccccc23)NC(=O)[C@H](Cc2c[nH]c3ccccc23)NC(=O)[C@H](CC(=O)O)NC(C)=O)CSCc2cccc(c2)CSC[C@@H](C(=O)NCCCOCCOCCOCCCNC(=O)CCC(=O)N[C@@H](CCCCNC(=O)CN2CCN(CC(=O)O)CCN(CC(=O)O)CCN(CC(=O)O)CC2)C(N)=O)NC1=O [GIP-291, Ac-Asp-Trp-Trp-Pro-Glu-Leu-[Nmc(3MeBn)-Aib-Leu-Ile-Cys]-Ttds-Lys(DOTA)-NH2] (Ac-DWWPEL[NMeC][Aib]LIC-X5; linker 7-11 via mXylylene)	> 1000	
CC[C@H](C)[C@@H]1NC(=O)[C@H](CC(C)C)NC(=O)C2(CCN(C(=O)CN3CCN(CC(=O)O)CCN(CC(=O)O)CCN(CC(=O)O)CC3)CC2)NC(=O)[C@@H](NC(=O)[C@@H](CC(C)C)NC(=O)[C@H](CCC(=O)O)NC(=O)[C@@H]2C[C@@H](O)CN2C(=O)[C@H](Cc2c[nH]c3ccc(Cl)cc23)NC(=O)[C@H](Cc2ccccc2Cl)NC(=O)[C@H](CC(=O)O)NC(C)=O)CSCc2cccc(n2)CSC[C@@H](C(N)=O)NC1=O [GIP-392, Ac-Asp-Ocf-5Clw-Hyp-Glu-leu-[Cys(2Lut)-Apc(DOTA)-Leu-Ile-Cys]-NH2] (Ac-D[Phe(2-Cl)][Trp(5-Cl)][Hyp]E[dL]C[Api](DOTA)LIC-NH2; linker 7-11 via Pyridine(2,6-diCH2))	10 to 79.4	
CC[C@H](C)[C@@H]1NC(=O)[C@H](CC(C)C)NC(=O)C2(CCN(C(=O)C(CNCCN)CNCCN)CC2)NC(=O)[C@@H](NC(=O)[C@@H](CC(C)C)NC(=O)[C@H](CCC(=O)O)NC(=O)[C@@H]2C[C@@H](N)CN2C(=O)[C@H](Cc2c[nH]c3ccc(Cl)cc23)NC(=O)[C@H](Cc2c[nH]c3ccccc23)NC(=O)[C@H](CC(=O)O)NC(=O)CCCC(=O)NC[C@H](O)[C@@H](O)[C@H](O)[C@H](O)CO)CSCc2cccc(n2)CSC[C@@H](C(=O)NC2CCN(CC(=O)N[C@H](CCC(=O)NC[C@H](O)[C@@H](O)[C@H](O)[C@H](O)CO)C(N)=O)CC2)NC1=O [GIP-030, AGLU-Glutar-Asp-Trp-5Clw-Tap-Glu-leu-[Cys(2Lut)-Apc(N4Ac)-Leu-Ile-Cys]-APAc-glu(AGLU)-NH2] ({NH(1-deoxy-D-glucityl)-Glutaryl}-DW[Trp(5-Cl)][Pro(4R-NH2)]E[dL]C[Api](X30)LIC[X1][dE](NH(1-deoxy-D-glucityl))-NH2; linker 7-11 via Pyridine(2,6-diCH2))		< 10
CC[C@H](C)[C@@H]1NC(=O)[C@H](CC(C)C)NC(=O)C2(CCOCC2)NC(=O)[C@@H](NC(=O)[C@@H](CC(C)C)NC(=O)[C@H](CCC(=O)O)NC(=O)[C@@H]2C[C@@H](N)CN2C(=O)[C@H](Cc2c[nH]c3ccc(Cl)cc23)NC(=O)[C@H](Cc2c[nH]c3ccccc23)NC(=O)[C@H](CC(=O)O)NC(C)=O)CSCc2cccc(n2)CSC[C@@H](C(N)=O)NC1=O [GIP-239, Ac-Asp-Trp-5Clw-Tap-Glu-leu-[Cys(2Lut)-Thp-Leu-Ile-Cys]-NH2] (Ac-DW[Trp(5-Cl)][Pro(4R-NH2)]E[dL]C[Thp]LIC-NH2; linker 7-11 via Pyridine(2,6-diCH2))		< 10
CC[C@H](C)[C@@H]1NC(=O)[C@H](CC(C)C)NC(=O)C2(CCOCC2)NC(=O)[C@@H](NC(=O)[C@@H](CC(C)C)NC(=O)[C@H](CCC(=O)O)NC(=O)[C@@H]2C[C@@H](NC(=O)CN3CCN(CC(=O)O)CCN(CC(=O)O)CCN(CC(=O)O)CC3)CN2C(=O)[C@H](Cc2cc(Cl)cc(Cl)c2)NC(=O)[C@H](Cc2c[nH]c3ccccc23)NC(=O)[C@H](CC(=O)O)NC(C)=O)CSCc2cccc(n2)CSC[C@@H](C(N)=O)NC1=O [GIP-402, Ac-Asp-Trp-Egn-Tap(DOTA)-Glu-leu-[Cys(2Lut)-Thp-Leu-Ile-Cys]-NH2] (Ac-DW[Phe(3,5-Cl2)][Pro(trans-4-NH2)](DOTA)E[dL]C[Thp]LIC-NH2; linker 7-11 via Pyridine(2,6-diCH2))	10 to 79.4	
